Patent US10040791B2, “Isoxazole derivative as mutant isocitrate dehydrogenase 1 inhibitor” (Daiichi Sankyo Company, Limited, priority 2014, dated 2018)

Legend:
IDH1R132C = IDH1R132C (Homo sapiens (Human), UniProt O75874, R132C); assay: Inhibitory activity against IDH1R132C enzyme (NADPH detection, WST-8); format: biochemical; details: 10 nM, residual NADPH detected with WST-8, read-out: Test Example 1 IDH1 R132C IC50
[1] = system: HT-1080 cells expressing IDH1R132C; assay: 2-HG production inhibitory activity using HT1080 cell; format: cell-based, human; details: Homo sapiens, HT-1080; 2-HG production, HT1080 cells; read-out: Test Example 3 IC50
Protocol: Then, 100 μL of growth medium B was added to each well, further 25 μL of a solution of each compound diluted to a predetermined concentration with growth medium B was added to each well, and the cells were incubated at 37° C. for 2 days under 5% CO2. […] Then, 150 μL of ultrapure water was further added to each well, and the mixture was stirred by pipetting and stored at −20° C.
The preserved solutions were thawed at room temperature.

[2] = system: HT1080 xenografted mice (IDH1R132C); assay: 2-HG production inhibitory activity using HT1080 xenografted mice; format: in vivo, mouse; details: Mus musculus, HT-1080, po, 6 h, 2-HG production, HT1080 xenografted mice; read-out: Test Example 5 Ratio (%)
How it was run: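 Mice bearing HT1080 tumors received 75 mg/kg compound by oral gavage twice a day, three doses in total, at 10 mL/kg; vehicle-dosed mice were negative controls. Tumors were collected 6 h after the final dose, frozen, homogenized in methanol and centrifuged, and 2-HG was measured in the extracts.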

Chain of IDH1R132C (O75874 whole entry R132C): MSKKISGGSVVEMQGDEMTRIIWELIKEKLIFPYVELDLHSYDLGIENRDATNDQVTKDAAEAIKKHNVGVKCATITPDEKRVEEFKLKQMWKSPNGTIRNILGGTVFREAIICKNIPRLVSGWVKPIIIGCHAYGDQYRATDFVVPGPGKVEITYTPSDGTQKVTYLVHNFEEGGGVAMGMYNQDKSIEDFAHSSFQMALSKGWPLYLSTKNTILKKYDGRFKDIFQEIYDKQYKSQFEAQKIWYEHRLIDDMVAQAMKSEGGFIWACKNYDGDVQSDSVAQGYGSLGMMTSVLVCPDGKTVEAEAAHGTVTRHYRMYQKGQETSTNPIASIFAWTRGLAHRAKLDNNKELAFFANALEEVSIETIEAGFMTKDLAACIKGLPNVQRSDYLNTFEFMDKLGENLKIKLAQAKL

| SMILES | IC50 (IDH1R132C) | IC50 [1] | response vs control in vivo at 75 mg/kg [2] |
| --- | --- | --- | --- |
| C=CC(=O)N1CC2(CC2)N(c2onc(-c3c(Cl)cccc3OC)c2C(=O)n2ccc3c(/C=C/C(=O)O)cccc32)C[C@H]1C [Example 158, (2E)-3-[1-({5-[(6R)7-Acryloyl-6-methyl-4,7-diazaspiro[2.5]oct-4-yl]-3-(2-chloro-6-methoxyphenyl)-1,2-oxazol-4-yl}carbonyl)-1H-indol-4-yl]prop-2-enoic acid] | 0.179 µM | 0.178 µM | 62% |
| C=CC(=O)N1C[C@@H](C)N(c2onc(-c3c(Cl)cccc3Cl)c2C(=O)n2ccc3c(/C=C/C(=O)O)cccc32)C2(CC2)C1 [Example 159, (2E)-3-[1-({5-[(5R)7-Acryloyl-5-methyl-4,7-diazaspiro[2.5]oct-4-yl]-3-(2,6-dichlorophenyl)-1,2-oxazol-4-yl}carbonyl)-1H-indol-4-yl]prop-2-enoic acid] | 0.084 µM | 0.138 µM | 30% |
| C=CC(=O)N1CC2(CC2)N(c2onc(-c3c(F)cccc3Cl)c2C(=O)n2ccc3c(/C=C/C(=O)O)cccc32)C[C@H]1CC [Example 160, (2E)-3-[1-({5-[(6R)7-Acryloyl-6-ethyl-4,7-diazaspiro[2.5]oct-4-yl]-3-(2-chloro-6-fluorophenyl)-1,2-oxazol-4-yl}carbonyl)-1H-indol-4-yl]prop-2-enoic acid] | 0.081 µM | 0.106 µM | 47% |
| C=CC(=O)N1CC2(CC2)N(c2onc(-c3c(Cl)cccc3OC)c2C(=O)n2ccc3c(/C=C/C(=O)O)cccc32)C[C@H]1CC [Example 161, (2E)-3-[1-({5-{(6R)7-Acryloyl-6-ethyl-4,7-diazaspiro[2.5]oct-4-yl]-3-(2-chloro-6-methoxyphenyl)-1,2-oxazol-4-yl}carbonyl)-1H-indol-4-yl]prop-2-enoic acid] | 0.098 µM | 0.121 µM | 72% |
| C=CC(=O)N1CC2(CC2)N(c2onc(-c3c(Cl)cccc3Cl)c2C(=O)n2ccc3c(/C=C/C(=O)O)cccc32)C[C@H]1CC [Example 163, (2E)-3-[1-({5-[(6R)7-Acryloyl-6-ethyl-4,7-diazaspiro[2.5]oct-4-yl]-3-(2,6-dichlorophenyl)-1,2-oxazol-4-yl}carbonyl)-1H-indol-4-yl]prop-2-enoic acid] | 0.098 µM | 0.045 µM | 33% |
| C=CC(=O)N1CCC(c2onc(-c3c(Cl)cc(Cl)cc3Cl)c2C(=O)c2cn(C)c3c(/C=C/C(=O)O)cccc23)CC1 [Example 166, (2E)-3-(3-{[5-(1-Acryloylpiperidin-4-yl)-3-(2,4,6-trichlorophenyl)-1,2-oxazol-4-yl]carbonyl}-1-methyl-1H-indol-7-yl)prop-2-enoic acid] | 0.141 µM | 0.299 µM | 81% |

The remaining compounds from weak to strong by IC50 (IDH1R132C), led by results:

| IC50 (IDH1R132C) | IC50 [1] | SMILES | response vs control in vivo at 75 mg/kg [2] |
| --- | --- | --- | --- |
| 0.256 µM | 0.265 µM | C=CC(=O)N1CCN(c2onc(-c3c(F)cccc3Cl)c2C(=O)n2ccc3c(/C=C/C(=O)O)cccc32)C(C)(C)C1 [Example 157, (2E)-3-(1-{[5-(4-Acryloyl-2,2-dimethylpiperazin-1-yl)-3-(2-chloro-6-fluorophenyl)-1,2-oxazol-4-yl]carbonyl}-1H-indol-4-yl)prop-2-enoic acid] | 89% |
| 0.196 µM | 0.195 µM | Cn1cc(C(=O)c2c(-c3c(Cl)cc(Cl)cc3Cl)noc2C(C)(C)C)c2ccc3ccc(C(=O)O)cc3c21 [Example 167, 3-{[5-tert-Butyl-3-(2,4,6-trichlorophenyl)-1,2-oxazol-4-yl]carbonyl}-1-methyl-1H-benzo[g]indole-8-carboxylic acid] | 87% |
| 0.167 µM | 0.167 µM | C=CC(=O)N1CC2(CC2)N(c2onc(-c3c(F)cccc3Cl)c2C(=O)n2ccc3c(/C=C/C(=O)O)cccc32)C[C@H]1C [Example 156, (2E)-3-[1-({5-[(6R)7-Acryloyl-6-methyl-4,7-diazaspiro[2.5]oct-4-yl]-3-(2-chloro-6-fluorophenyl)-1,2-oxazol-4-yl}carbonyl)-1H-indol-4-yl]prop-2-enoic acid] | 60% |
